{"source": "ChEMBL document CHEMBL1201862", "about": "“PubChem BioAssay data set” (2004)", "key": {"[1]": {"target": "Voltage-gated inwardly rectifying potassium channel KCNH2 (Homo sapiens, UniProt Q12809)", "sequence (Q12809 whole entry)": "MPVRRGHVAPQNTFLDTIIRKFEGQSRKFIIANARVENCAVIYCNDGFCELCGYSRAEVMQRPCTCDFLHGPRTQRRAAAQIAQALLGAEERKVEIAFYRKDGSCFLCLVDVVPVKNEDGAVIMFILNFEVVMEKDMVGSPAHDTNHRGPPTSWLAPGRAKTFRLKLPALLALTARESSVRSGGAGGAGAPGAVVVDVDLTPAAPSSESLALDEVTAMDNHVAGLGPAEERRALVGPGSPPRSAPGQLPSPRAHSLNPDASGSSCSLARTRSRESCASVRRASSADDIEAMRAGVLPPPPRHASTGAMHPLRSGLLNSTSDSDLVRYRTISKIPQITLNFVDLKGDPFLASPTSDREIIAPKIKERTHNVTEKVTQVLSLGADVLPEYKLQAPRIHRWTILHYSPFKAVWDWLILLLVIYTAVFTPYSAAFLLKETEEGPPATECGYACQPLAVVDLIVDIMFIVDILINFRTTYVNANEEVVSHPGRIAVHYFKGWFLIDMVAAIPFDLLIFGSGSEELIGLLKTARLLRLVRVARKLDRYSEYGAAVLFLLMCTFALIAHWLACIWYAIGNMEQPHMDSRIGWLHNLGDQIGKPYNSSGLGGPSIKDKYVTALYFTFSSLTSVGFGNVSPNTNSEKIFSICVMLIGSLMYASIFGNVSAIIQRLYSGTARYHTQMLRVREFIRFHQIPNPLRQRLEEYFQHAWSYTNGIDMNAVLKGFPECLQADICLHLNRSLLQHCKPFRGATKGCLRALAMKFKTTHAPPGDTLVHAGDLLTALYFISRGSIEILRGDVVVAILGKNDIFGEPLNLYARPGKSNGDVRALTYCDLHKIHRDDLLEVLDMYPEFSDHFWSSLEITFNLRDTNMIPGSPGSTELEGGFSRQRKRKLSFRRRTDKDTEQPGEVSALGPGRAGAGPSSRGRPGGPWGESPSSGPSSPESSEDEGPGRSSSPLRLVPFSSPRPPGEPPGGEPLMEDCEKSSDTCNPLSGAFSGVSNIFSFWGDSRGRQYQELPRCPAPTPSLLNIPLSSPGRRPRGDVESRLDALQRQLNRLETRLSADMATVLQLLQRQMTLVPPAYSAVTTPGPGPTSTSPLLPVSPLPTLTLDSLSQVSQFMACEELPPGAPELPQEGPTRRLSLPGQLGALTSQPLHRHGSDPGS", "details": "Potency"}, "[2]": {"assay": "growth suppression of beta-catenin-knockout colon cells, dose response, cell-based, HCT116, human colon tumor (AID 1045);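 note: HCT116 colon tumor cells with beta catenin knocked out; cells exposed to compound for 60 hours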", "assay_type": "functional"}, "[3]": {"assay": "growth suppression of PTEN-null colon cells, dose response, cell-based, HCT116 PTEN knockout (AID 1047);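 note: HCT116 colon tumor cells with PTEN knocked out; cells exposed to compound for 60 hours before readout; potency for loss of cell viability measured by luminescence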", "assay_type": "functional"}, "A-375": {"tested_on": "A-375", "assay": "MITF: Counter assay: A375 proliferation Measured in Cell-Based System Using Plate Reader - 2084-03_Inhibitor_Dose_DryPowder_Activity. [Related pubchem assays (depositor defined):AID488944]", "assay_type": "functional", "details": "Homo sapiens"}, "[4]": {"target": "T1, Microphthalmia-associated transcription factor (Homo sapiens, UniProt O75030)", "T1 sequence (O75030 whole entry)": "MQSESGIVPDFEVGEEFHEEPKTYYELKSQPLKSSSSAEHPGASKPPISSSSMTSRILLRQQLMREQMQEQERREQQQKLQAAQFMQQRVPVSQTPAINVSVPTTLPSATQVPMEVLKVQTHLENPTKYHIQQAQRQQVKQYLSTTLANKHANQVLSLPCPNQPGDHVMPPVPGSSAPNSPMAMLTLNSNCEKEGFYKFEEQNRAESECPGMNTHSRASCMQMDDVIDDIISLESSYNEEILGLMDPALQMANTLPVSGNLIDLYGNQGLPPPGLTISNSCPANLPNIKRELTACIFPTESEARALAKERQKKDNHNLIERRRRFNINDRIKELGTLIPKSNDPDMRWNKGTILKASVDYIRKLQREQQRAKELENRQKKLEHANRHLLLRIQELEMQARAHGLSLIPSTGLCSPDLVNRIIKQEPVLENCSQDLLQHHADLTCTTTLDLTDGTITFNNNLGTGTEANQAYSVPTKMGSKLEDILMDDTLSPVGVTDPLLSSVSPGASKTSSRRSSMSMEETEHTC", "assay": "TRPM1 promoter luciferase signal decrease, dose response, MITF inhibitor project, cell-based, SK-MEL-5, cherry-picked, set 3 (AID 493073)", "assay_type": "functional"}, "[5]": {"target": "T2, Ubiquitin-conjugating enzyme E2 N (Homo sapiens, UniProt P61088)", "T2 sequence (P61088 whole entry)": "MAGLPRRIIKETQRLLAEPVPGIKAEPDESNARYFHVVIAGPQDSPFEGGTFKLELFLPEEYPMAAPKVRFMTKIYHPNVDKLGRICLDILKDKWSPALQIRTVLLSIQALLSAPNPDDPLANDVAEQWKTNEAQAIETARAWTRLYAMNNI", "assay_type": "functional"}, "H4": {"tested_on": "H4", "assay": "Luminescence Cell-Based Dose Response HTS to Identify Activators of 5'UTR Stem-Loop Driven Prion Protein mRNA Translation in H4 Neuroglioblastoma Cells. [Related pubchem assays: 1829 (Project Summary), 1814 (Primary HTS)]", "assay_type": "functional", "details": "Homo sapiens"}, "[6]": {"assay": "Luminescence Cell-Based Dose Confirmation HTS to Identify Activators of 5'UTR Stem-Loop Driven Alpha-Synuclein mRNA Translation in H4 Neuroglioblastoma Cells. [Related pubchem assays: 1829 (Project Summary), 1814 (Primary HTS)]", "assay_type": "functional"}, "[7]": {"assay": "Luminescence Cell-Based Dose Response HTS to Identify Activators of Luciferase Translation or Activity in H4 […] Cells. [Related pubchem assays: 1829 (Project Summary), 1814 (Primary HTS)]", "assay_type": "functional"}, "HEK293": {"tested_on": "HEK293", "assay": "cells", "assay_type": "functional, cell-based", "details": "Homo sapiens"}, "[8]": {"target": "Nuclear receptor subfamily 0 group B member 1 (Homo sapiens, UniProt P51843)", "sequence (P51843 whole entry)": "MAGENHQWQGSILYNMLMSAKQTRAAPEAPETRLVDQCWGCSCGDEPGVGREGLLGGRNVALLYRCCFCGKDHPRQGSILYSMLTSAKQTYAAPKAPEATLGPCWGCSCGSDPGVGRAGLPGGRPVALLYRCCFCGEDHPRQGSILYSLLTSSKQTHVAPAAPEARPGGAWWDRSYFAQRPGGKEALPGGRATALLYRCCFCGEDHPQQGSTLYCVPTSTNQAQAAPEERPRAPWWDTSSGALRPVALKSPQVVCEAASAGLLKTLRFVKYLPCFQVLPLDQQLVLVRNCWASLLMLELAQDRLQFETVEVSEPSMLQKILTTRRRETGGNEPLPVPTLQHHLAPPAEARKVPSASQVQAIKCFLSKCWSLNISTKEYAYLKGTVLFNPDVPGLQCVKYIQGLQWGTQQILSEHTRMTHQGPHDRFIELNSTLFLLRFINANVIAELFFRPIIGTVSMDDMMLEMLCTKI", "assay": "Luminescence-based cell-based high throughput dose response assay for inhibitors of the orphan nuclear receptor subfamily 0, group B, member 1 (DAX1; NR0B1). [Related pubchem assays (depositor defined):AID504766, AID504790]", "assay_type": "functional"}}, "note": "The source made the active and inactive calls.", "data": [{"smiles": "C/C=C(/C)C(=O)O[C@H]1C(C)=C2[C@H]([C@@H]1OC(=O)CCCCCCC)[C@@](C)(OC(C)=O)C[C@@H](OC(=O)CCC)[C@@]1(O)[C@H]2OC(=O)[C@@]1(C)O", "values": [{"measurement": "AC50", "setting": "[1]", "value": "22.4 µM (inconclusive)"}]}, {"smiles": "COc1ccc(-c2nn(-c3ccccc3)cc2/C=N/N=C(N)N)cc1OC", "values": [{"measurement": "EC50", "setting": "[2]", "value": "4.78 µM (active)"}, {"measurement": "EC50", "setting": "[3]", "value": "4.55 µM (active)"}, {"measurement": "AC50", "setting": "A-375", "value": "17.4 µM (active)"}, {"measurement": "AC50", "setting": "[4]", "value": "14.6 µM (active)"}, {"measurement": "IC50", "setting": "[5]", "value": "> 20 µM (inactive)"}]}, {"smiles": "COC(=O)c1cc2c(s1)-c1ccc(OC)cc1CC2", "values": [{"measurement": "EC50", "setting": "H4", "value": "46.2 µM (active)"}, {"measurement": "EC50", "setting": "[6]", "value": "9.47 µM (active)"}, {"measurement": "EC50", "setting": "[7]", "value": "18.7 µM (active)"}, {"measurement": "IC50", "setting": "HEK293", "value": "> 22.5 µM (inactive)"}, {"measurement": "IC50", "setting": "[8]", "value": "> 67.5 µM (inactive)"}]}]}
